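Protocol summary: plate cells (96-well), add compound at 5 concentrations, incubate 48 h, interpolate endpoints linearly. At the TGI there is no net growth.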
Columns and labels:
Assay in all cases: DTP human tumour cell line panel, 48 h
[1] = test system: IGROV1 ovarian
[2] = test system: SK-MEL-2 melanoma
[3] = test system: NCI-H226 lung
[4] = test system: NCI-H23 lung
[5] = test system: K-562 leukemia
[6] = test system: CCRF-CEM leukemia
[7] = test system: SN12C renal
[8] = test system: PC-3 prostate
[9] = test system: SNB-75 CNS
[10] = test system: LOX IMVI melanoma
[11] = test system: KM12 colon
[12] = test system: SF-268 CNS
[13] = test system: MALME-3M melanoma
[14] = test system: COLO 205 colon
[15] = test system: SW-620 colon
[16] = test system: NCI-H460 lung
[17] = test system: HL-60(TB) leukemia
[18] = test system: T-47D breast
[19] = test system: SR leukemia
[20] = test system: HOP-92 NSCLC

Compound | TGI [1] [µM] | TGI [2] [µM] | TGI [3] [µM] | TGI [4] [µM] | TGI [5] [µM] | TGI [6] [µM] | TGI [7] [µM] | TGI [8] [µM] | TGI [9] [µM] | TGI [10] [µM] | TGI [11] [µM] | TGI [12] [µM] | TGI [13] [µM] | TGI [14] [µM] | TGI [15] [µM] | TGI [16] [µM] | TGI [17] [µM] | TGI [18] [µM] | TGI [19] [µM] | TGI [20] [µM]
O=C(O)c1ccc([N+]2=Cn3c(nc4ccccc43)C2)cc1 | > 100 | > 100 | > 100 | > 100 | > 100 | > 100 | > 100 | > 100 | > 100 | > 100 | > 100 | > 100 | 3.05 | > 100 | > 100 | > 100 | > 100 | > 100 |  | 
Cc1n[nH]c(=O)n1/N=C/c1cccs1 |  | > 100 | > 100 | > 100 | > 100 | > 100 | > 100 | > 100 | > 100 | > 100 | > 100 | > 100 | > 100 | > 100 | > 100 | > 100 |  | > 100 |  | 
COc1ccc2c3c(n(Cc4ccccc4)c(=O)c2c1)-c1cc(OC)c(OC)cc1C3C (stereo not given) | > 100 | 46 | > 75.9 | > 100 | > 100 | > 100 | > 100 |  | 45.4 | > 100 | > 100 | > 63.6 | 57.6 | > 100 | > 100 | 21.7 | > 100 |  | > 100 | 42.6
COc1ccc2c(c1)c1c(n2CCN(C)C)-c2cccc(OC)c2CC1 | 39 | 30.2 | 17.1 | 36.9 | 16.4 | 15.1 | 35.5 | 24.2 | 18.9 | 37.4 | 25.4 | 38.9 |  | 27.7 |  | 41.5 |  | 27.7 |  | 44.2
Cc1c(-c2nnc(-c3ccc(Cl)cc3)o2)c(=O)n(-c2ccccc2)n1C | > 100 | > 100 | > 100 | > 100 | > 100 | > 100 | > 100 |  | > 100 | > 100 | > 100 | > 100 | > 100 | > 100 | > 100 | > 100 | > 100 |  | > 100 | > 100
CC(C)OC(=O)C1=C(O)c2ccccc2S(=O)(=O)N1 | > 100 | > 100 | > 100 | > 100 | > 100 | > 100 | > 100 |  | > 100 | > 100 | > 100 | > 100 | > 100 | > 100 | > 100 | > 100 |  |  |  | 
CCOC(=O)N(c1ccccc1)c1cc(=O)n2ccccc2n1 | > 100 |  | > 100 | > 100 | > 100 | > 100 | > 100 |  | > 100 | > 100 | > 100 | > 100 | > 100 | > 100 | > 100 | > 100 | > 100 | > 100 | > 100 | 
CN(Cc1cnc2nc(N)nc(N)c2n1)c1ccc(C(=O)NCS(=O)(=O)O)cc1 | > 100 | > 100 | > 100 | > 100 | > 100 |  | > 100 | > 100 | > 100 | > 100 | > 100 | > 100 | > 100 | > 100 | > 100 | > 100 |  | > 100 |  | > 100
COCc1cc2c(cc1/C(=C/[N+](=O)[O-])CS(=O)(=O)c1ccccc1)OCO2 | > 100 |  | > 100 | > 100 | > 100 | > 100 | > 100 |  | > 100 | > 100 |  | > 100 |  | > 100 | > 100 | > 100 | > 100 | > 100 | > 100 | > 100
COc1cc(=O)n2c3ccccc3n(C)c2c1C#N | > 100 | > 100 | > 100 | > 100 | > 100 | > 100 | > 100 | > 100 | > 100 |  | > 100 | > 100 | > 100 | > 100 | > 100 | > 100 | > 100 |  | > 100 | > 100
COc1cc(-c2cc(=O)c3c(O)c(OC)c(OC)c(OC)c3o2)ccc1O | 37.2 | 46.1 |  | > 100 | > 100 | > 100 | 79 |  |  | 68.8 | > 100 | > 100 | > 100 |  | > 100 | 69.2 | 61.6 |  | > 100 | 40.1
O=C(O)c1cc2cc(c1)N=Cc1ccccc1OCc1cccc(n1)COc1ccccc1C=N2 | > 25 | > 25 | > 25 | > 25 | > 25 | > 25 | > 25 | > 25 | > 25 |  | > 25 | > 25 | 22.4 | > 25 | > 25 | > 25 | > 25 |  | > 25 | > 25
O=C(N/C(=C\c1cccc([N+](=O)[O-])c1)c1nc2[nH]c(=S)[nH]c(=O)c2[nH]1)c1ccccc1 | > 100 | > 100 | > 100 | > 100 | > 100 | > 100 | > 100 |  | > 100 | > 100 | > 100 | > 100 | > 100 | > 100 | > 100 | > 100 | > 100 |  | > 100 | > 100

From PubChem BioAssay (NCI)
